From patent publication US12692269B2, “Therapeutic compounds” (Genentech, Inc., priority 2019, dated 2026)

Key:
Format in all cases: binding
TEAD1 YAP50-100 = TEAD1 YAP50-100 (Homo sapiens, UniProt P28347); assay: TEAD1-YAP HTRF (TR-FRET) protein-protein interaction assay; conditions: TEAD1, YAP peptide 50-100, HTRF; for EC50: read-out: TEAD1 YAP50-100 HTRF combined: EC50
Description: (§1) Purified His-tagged TEAD protein (YAP Binding Domain, amino acids 217-447) is pre-incubated with Europium labelled anti-His antibody tracer (Perkin Elmer Cat #AD0110). Small molecule Inhibitors are then incubated with the TEAD-Eu protein complex for 30 minutes to allow for binding to TEAD protein. Biotinylated YAP peptide for TEAD-YAP assays (AA's 50-100) or biotinylated TAZ peptide for TEAD-TAZ assays (AA's 13-57) that has been pre-incubated with streptavidin-xl665 acceptor (CIS-Bio Cat #610SAXAC) or is added to the compound-TEAD mix. The TEAD-YAP-inhibitor mixture is then incubated for 60 minutes at room temperature. All reactions are carried out in a polystyrene plate. After 60 minutes, the plate is read on a plate reader using TR-FRET mode with wavelengths of 665 nm/615 nm. If YAP or TAZ binds to TEAD as expected, a TR-FRET signal results from the proximity of YAP or TAZ and TEAD after binding. If an inhibitor such as peptide 17 (Selleckchem Cat #58164) interferes with YAP-TEAD or TAZ-TEAD binding, the disruption of the YAP or TAZ:TEAD interaction results in a decrease in TR-FRET signal. The potency of compounds as YAP:TEAD or TAZ:TEAD protein-protein interaction (PPi) inhibitors is determined by an IC50 or EC50 value generated using a non-linear four parameter curve fit.

[1] = target: TEAD3 TAZ (amino acids 13-57) (Homo sapiens, UniProt Q99594); assay: TEAD3-TAZ HTRF (TR-FRET) protein-protein interaction assay; conditions: for TEAD3 TAZ HTRF combined: Max % Inhibition: TEAD3, TAZ peptide; for EC50: TEAD3-TAZ HTRF, TR-FRET 665 nm/615 nm, read-out: TEAD3 TAZ HTRF combined: EC50
Sequence of TEAD3 TAZ (amino acids 13-57) (Q99594 173-435 limits assumed): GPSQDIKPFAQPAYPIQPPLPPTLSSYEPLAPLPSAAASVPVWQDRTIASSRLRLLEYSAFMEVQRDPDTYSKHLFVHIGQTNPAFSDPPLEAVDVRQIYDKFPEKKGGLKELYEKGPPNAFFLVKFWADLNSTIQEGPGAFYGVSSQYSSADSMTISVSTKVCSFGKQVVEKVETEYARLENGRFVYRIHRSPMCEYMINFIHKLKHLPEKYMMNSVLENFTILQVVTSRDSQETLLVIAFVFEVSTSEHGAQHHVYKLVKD
Description: as §1

TEAD3 YAP50-100 = TEAD3 YAP50-100 (Homo sapiens, UniProt Q99594); assay: TEAD3-YAP HTRF (TR-FRET) protein-protein interaction assay; conditions: TEAD3, YAP peptide 50-100, HTRF; for EC50: read-out: TEAD3 YAP50-100 HTRF combined: EC50
Sequence of TEAD3 YAP50-100 (Q99594 173-435 limits assumed): as above
Description: as §1

[2] = target: TEAD1 TAZ (amino acids 13-57) (Homo sapiens, UniProt P28347); assay: TEAD1-TAZ HTRF (TR-FRET) protein-protein interaction assay; conditions: for TEAD1 TAZ HTRF combined: Max % Inhibition: TEAD1, TAZ peptide; for EC50: TEAD1-TAZ HTRF, TR-FRET 665 nm/615 nm, read-out: TEAD1 TAZ HTRF combined: EC50
Sequence of TEAD1 TAZ (amino acids 13-57) (P28347 167-426 limits assumed): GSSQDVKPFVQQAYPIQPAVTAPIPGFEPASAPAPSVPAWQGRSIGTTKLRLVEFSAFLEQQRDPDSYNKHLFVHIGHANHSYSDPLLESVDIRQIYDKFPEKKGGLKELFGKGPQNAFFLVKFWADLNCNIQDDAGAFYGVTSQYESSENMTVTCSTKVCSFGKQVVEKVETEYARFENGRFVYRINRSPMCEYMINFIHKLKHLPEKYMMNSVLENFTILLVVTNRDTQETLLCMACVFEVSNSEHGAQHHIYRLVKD
Description: as §1

TEAD2 YAP50-100 = TEAD2 YAP50-100 (Homo sapiens, UniProt Q15562); assay: TEAD2-YAP HTRF (TR-FRET) protein-protein interaction assay; conditions: TEAD2, YAP peptide 50-100, HTRF; for EC50: read-out: TEAD2 YAP50-100 HTRF combined: EC50
Sequence of TEAD2 YAP50-100 (Q15562 217-447): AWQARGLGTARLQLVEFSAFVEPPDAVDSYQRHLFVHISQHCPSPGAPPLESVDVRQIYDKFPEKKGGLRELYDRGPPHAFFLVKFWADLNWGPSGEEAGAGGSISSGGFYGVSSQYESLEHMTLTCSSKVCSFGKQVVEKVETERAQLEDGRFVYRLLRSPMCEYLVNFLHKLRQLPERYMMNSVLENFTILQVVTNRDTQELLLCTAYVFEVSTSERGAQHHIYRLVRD
Description: as §1

[3] = target: TEAD4 TAZ (amino acids 13-57) (Homo sapiens, UniProt Q15561); assay: TEAD4-TAZ HTRF (TR-FRET) protein-protein interaction assay; conditions: for TEAD4 TAZ HTRF combined: Max % Inhibition: TEAD4, TAZ peptide; for EC50: TEAD4-TAZ HTRF, TR-FRET 665 nm/615 nm, read-out: TEAD4 TAZ HTRF combined: EC50
Sequence of TEAD4 TAZ (amino acids 13-57) (Q15561 217-434 limits assumed): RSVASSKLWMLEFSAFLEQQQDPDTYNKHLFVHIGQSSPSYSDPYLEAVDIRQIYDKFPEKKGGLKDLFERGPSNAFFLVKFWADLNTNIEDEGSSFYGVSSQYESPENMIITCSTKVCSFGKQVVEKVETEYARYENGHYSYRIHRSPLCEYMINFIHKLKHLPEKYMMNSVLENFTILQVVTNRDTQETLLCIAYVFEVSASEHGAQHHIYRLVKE
Description: as §1

[4] = target: TEAD2 TAZ (amino acids 13-57) (Homo sapiens, UniProt Q15562); assay: TEAD2-TAZ HTRF (TR-FRET) protein-protein interaction assay; conditions: for TEAD2 TAZ HTRF combined: Max % Inhibition: TEAD2, TAZ peptide; for EC50: TEAD2-TAZ HTRF, TR-FRET 665 nm/615 nm, read-out: TEAD2 TAZ HTRF combined: EC50
Sequence of TEAD2 TAZ (amino acids 13-57) (Q15562 217-447): as the sequence (Q15562 217-447) above
Description: as §1

TEAD4 YAP50-100 = TEAD4 YAP50-100 (Homo sapiens, UniProt Q15561); assay: TEAD4-YAP HTRF (TR-FRET) protein-protein interaction assay; conditions: TEAD4, YAP peptide 50-100, HTRF; for EC50: read-out: TEAD4 YAP50-100 HTRF combined: EC50
Sequence of TEAD4 YAP50-100 (Q15561 217-434 limits assumed): as the sequence (Q15561 217-434 limits assumed) above
Description: as §1

Sequence of TEAD1 YAP50-100 (P28347 167-426 limits assumed): as the sequence (P28347 167-426 limits assumed) above

Row | SMILES | TEAD1 YAP50-100 HTRF combined: Max % Inhibition (TEAD1 YAP50-100) | EC50 (TEAD1 YAP50-100) | TEAD3 TAZ HTRF combined: Max % Inhibition [1] | EC50 [1] | TEAD3 YAP50-100 HTRF combined: Max % Inhibition (TEAD3 YAP50-100) | EC50 (TEAD3 YAP50-100) | TEAD1 TAZ HTRF combined: Max % Inhibition [2] | EC50 [2] | TEAD2 YAP50-100 HTRF combined: Max % Inhibition (TEAD2 YAP50-100) | EC50 (TEAD2 YAP50-100) | TEAD4 TAZ HTRF combined: Max % Inhibition [3] | EC50 [3] | TEAD2 TAZ HTRF combined: Max % Inhibition [4] | EC50 [4] | TEAD4 YAP50-100 HTRF combined: Max % Inhibition (TEAD4 YAP50-100) | EC50 (TEAD4 YAP50-100)
1 | CCc1ccnc(-c2nn3c(=O)cc(-c4ccc(C5CCCCC5)cc4)[nH]c3c2C(=O)N2CC(CF)C2)n1 [Compound 12, 5-(4-Cyclohexylphenyl)-2-(4-ethylpyrimidin-2-yl)-3-(3-(fluoromethyl)azetidine-1-carbonyl)pyrazolo[1,5-a]pyrimidin-7(4H)-one] | 72.0% | 140 nM | 56.0% | 240 nM | 66.0% | 190 nM | 67.5% | 110 nM | 69.0% | 20 nM | 58.0% | 180 nM | 64.5% | 20 nM | 55.0% | 200 nM
2 | O=C(c1c(C2CNCCO2)nn2c(=O)cc(-c3ccc(C4CCCCC4)cc3)[nH]c12)N1CC(CF)C1 (single isomer, unassigned) [Enantiomer A, Example 63, 5-(4-Cyclohexylphenyl)-3-[3-(fluoromethyl)azetidine-1-carbonyl]-2-morpholin-2-yl-4H-pyrazolo[1,5-a]pyrimidin-7-one] | 66.0% | 140 nM | 55.5% | 200 nM | 62.0% | 180 nM | 55.5% | 130 nM | 66.0% | 40 nM | 30.5% | 1550 nM | 66.0% | 40 nM | 40.0% | 1600 nM
3 | CC(C)(C)c1ccc(COc2cc(=O)n3nc(-c4cnccn4)c(C(=O)N4CC(CF)C4)c3[nH]2)cc1 [Compound 53, 5-((4-(Tert-butyl)benzyl)oxy)-3-(3-(fluoromethyl)azetidine-1-carbonyl)-2-(pyrazin-2-yl)pyrazolo[1,5-a]pyrimidin-7(4H)-one] | 72.0% | 50 nM | 46.0% | 90 nM | 58.5% | 110 nM | 62.5% | 70 nM | 64.5% | 20 nM | 51.5% | 30 nM | 67.0% | 20 nM | 65.5% | 50 nM
4 | C[C@H]1[C@@H](CF)CN1C(=O)c1c(-c2cnccn2)nn2c(=O)cc(-c3ccc(CC4CCCC4)cc3)[nH]c12 (single isomer, unassigned) [Isomer A, Example 44, Cis-5-(4-(cyclopentylmethyl)phenyl)-3-(3-(fluoromethyl)-2-methylazetidine-1-carbonyl)-2-(pyrazin-2-yl)pyrazolo[1,5-a]pyrimidin-7(4H)-one] | 64.0% | 60 nM | 64.0% | 1200 nM | 65.5% | 1050 nM | 52.0% | 70 nM | 52.0% | 40 nM | 42.0% | 9500 nM | 56.5% | 40 nM | 40.0% | 9350 nM
